Like-named read-outs stand apart in the source and are kept apart here.
Key:
[1] = Tissue distribution of RPM constituents after oral RPM extract; settings: for AUC(0-t): Sprague-Dawley, rat, po, 18 g/kg
Procedure: For the tissue distribution study, 18 rats were randomly divided into three groups (n = 6, each) and orally administered 18 g/kg RPM extract. The rats under isoflurane anesthesia were sacrificed by bleeding from the abdominal aorta at 5, 15, and 60 min (six rats per time point) after gavage with 18 g/kg RPM extract. Subsequently, the heart, liver, spleen, lung, kidney, brain, stomach, small intestine, bladder, and gonads (testes of male rats, and uterus and ovaries of female rats) were immediately collected. An accurately weighed amount of fresh tissue sample (0.25 g) was individually homogenized with normal saline (1 ml) and transferred (50 μL) as a tissue homogenate to 1.5 ml centrifuge tubes for use as the tissue samples. All tissue samples were stored at −70°C until analysis.
Samples were prepared using the protein precipitation process. […] The tissue samples were homogenized in four parts of ice-cold 0.9% saline solution and then centrifuged at 4°C and 12,000 × g for 10 min to obtain tissue homogenates. […] Tissue homogenate, urine, bile and fecal samples were subjected to a similar process as the rat plasma samples.
For the tissue distribution study, 18 rats were randomly divided into three groups (n=6, each), and orally administered with 18 g/kg RPM extract. The rats were sacrificed at 5, 15, 60 min after orally administering RPM. Subsequently, the heart, liver, spleen, lung, kidney, brain, stomach, small intestine, bladder, gonad (testes of male rats, uterus and ovaries of female rats) were immediately collected. An accurately weighed amount of fresh tissue sample (0.25 g) was individually homogenized with normal saline (1 mL) and transferred (50 μL) as a tissue homogenate to 1.5 mL centrifuge tubes for use as the tissue samples.

[2] = RPM extract 36 g/kg p.o., rat plasma, Mean ± SD, n = 6; ref Cheng et al., 2020; cited from earlier work
[3] = ref Liu et al., 2010; cited from earlier work
[4] = Biliary excretion in bile duct drained rats after oral RPM extract; settings: single p.o. RPM extract 18 g/kg, rat bile
Procedure: (§1) For the excretion study, the rats were housed singly in metabolic cages with urine collection tubes kept at 4 °C during sample collection. Urine and fecal samples were collected at time intervals of 0–4, 4–8, 8–24, 24–32, and 32–48 h after a single dose of RPM extract at 18 g/kg and then weighed. Another six rats were anesthetized with pentobarbital, fixed in the supine position and subjected to bile duct drainage surgery, and the abdominal wound was sutured. Blank bile samples were collected before the administration of RPM. The rats were weighed, and the state of the rats was observed. Subsequently, they were orally administered 18 g/kg RPM extract. The bile samples were collected at time intervals of 0–1, 1–2, 2–4, 4–6, 6–8, 8–24, 24–32 and 32–48 h. The urine, feces, and bile samples were stored at −70°C until use.
(§2) Samples were prepared using the protein precipitation process. […] After vortex shaking for 5 min and centrifugation at 14,000 g for 5 min, 150 μL of the organic layer was transferred to a clean tube and evaporated to dryness at 25°C under a stream of nitrogen. The residue was reconstituted in 50 μL of the initial mobile phase and subjected to another round of centrifugation at 14,000 g for 5 min, and 5 μL of the supernatant was injected for LC–MS/MS analysis. […] Urine and bile samples were centrifuged at 4°C and 12,000 × g for 15 min. Fecal samples were homogenized in 0.9% saline and then centrifuged at 4°C and 12,000 × g for 15 min to gather the fecal homogenates. Tissue homogenate, urine, bile and fecal samples were subjected to a similar process as the rat plasma samples.
(§3) For the excretion study, 6 rats were placed in metabolic cage after orally administered with 18 g/kg RPM extract, and urine, feces samples were collected at time intervals of 0–4, 4–8, 8–24, 24–32, 32–48, 48–60, and 60–72 h. Another 6 rats were anesthetized with pentobarbital, fixed in the supine position and performed bile duct drainage operation, and the abdominal wound was sutured. […] Subsequently, they were orally administered with 18 g/kg RPM extract. The bile samples were collected at time intervals of 0–1, 1–2, 2–4, 4–6, 6–8, 8–24, 24–32 and 32–48 h. The urine, feces, and bile samples were stored at −70 °C until use.

[5] = Excretion into urine and feces and mass balance after oral RPM extract; settings: for dose excreted: Sprague-Dawley, rat, po, mass balance, 18 g/kg RPM extract p.o.; for cumulative excretion into feces / cumulative excretion into urine: single p.o. RPM extract 18 g/kg; for cumulative excretion into feces: rat feces; for cumulative excretion into urine: rat urine
Procedure: as §1, §2, §3

[6] = Dose-exposure relationship (power function model with confidence interval method)
Procedure: (§4) The pharmacokinetic parameters, including the area under the plasma concentration-time curve from time zero to time t (AUC0-t) to time infinity (AUC0-∞), the time to reach the maximum plasma concentration (T max), the elimination half-time (t 1/2), and the maximum plasma concentration (C max), were calculated using the pharmacokinetic software Phoenix® WinNonlin®, version 7.0 (Scientific Consulting Inc., Apex, NC, United States). Data are expressed as the mean ± standard deviation (SD) for each group. The dose-exposure relationship was evaluated by the power function model combined with the confidence interval method ([Smith et al., 2000]; [Sethuraman et al., 2007]; [Hummel et al., 2009]). First, the administration dose, AUC0-∞ and C max were logarithmically transformed, and then a linear regression was performed to obtain the curve correlation coefficient (R^2), slope and 90% confidence interval (90% CI).

[7] = Plasma pharmacokinetics of RPM constituents after oral RPM extract; settings: for time at which C max was exhibited: RPM extract p.o.; for AUC(0-inf) / AUC(0-t) / Cmax / MRT inf / Tmax / half-life: Sprague-Dawley, rat, plasma, po
Source text: For the pharmacokinetic (PK) study, three groups (n = 6 each) of rats were orally administered RPM extract (6, 18, and 36 g/kg). In the plasma pharmacokinetics experiment, doses were 6, 18, and 36 g/kg for the single administration group and 18 g/kg for the continuous administration group. The doses were set at a subtoxic level ([Zhang et al., 2013]; [Wang et al., 2015]) to investigate the pharmacokinetic profiles of the constituents of RPM (36 g/kg group) and were approximately 60 times the upper dose (6 g/day) for humans recommended by the 2020 edition of Chinese Pharmacopoeia ([Chinese Pharmacopoeia Commission, 2020]), which was converted to a dose for rats based on body surface area conversion ([Reagan-Shaw et al., 2008]). In addition, the low and medium doses decreased in a certain proportion. Serial blood samples (∼120 μL; before dosing and at 5, 15, and 30 min, and 1, 2, 4, 6, 8, 12, and 24 h after administration) were collected in heparinized tubes from the orbital sinus under light isoflurane. The blood samples were centrifuged at 12000 g for 2 min, and the plasma fractions were decanted and frozen at −70°C until analysis.
Samples were prepared using the protein precipitation process. Rat plasma (50 μL) spiked with 10 μL of IS (puerarin 100 ng/ml) was extracted with 150 μL acetonitrile. After vortex shaking for 5 min and centrifugation at 14,000 g for 5 min, 150 μL of the organic layer was transferred to a clean tube and evaporated to dryness at 25°C under a stream of nitrogen. The residue was reconstituted in 50 μL of the initial mobile phase and subjected to another round of centrifugation at 14,000 g for 5 min, and 5 μL of the supernatant was injected for LC–MS/MS analysis.
The analysis was performed on an AB Sciex API 5500 Q Trap mass spectrometer (Toronto, Canada), interfaced with a Waters Acquity UPLC separation module.
as §4

[8] = set-up: method as in Wang P. et al., 2011; settings: ref Wang P. et al., 2011, cited from earlier work
[9] = feces, Recovery in feces (%), feces collected 0–72 h
[10] = urine and feces, Recovery in urine and feces (%), urine plus feces, 0–72 h
[11] = urine, Recovery in urine (%), urine collected 0–72 h
[12] = AUC0-∞ vs p.o. dose of RPM extract, critical interval 0.88–1.12
[13] = C max vs p.o. dose of RPM extract, critical interval 0.80–1.20
[14] = log AUC0-∞ vs log p.o. dose of RPM extract, critical interval 0.88–1.12
[15] = log C max vs log p.o. dose of RPM extract, critical interval 0.80–1.20

Structure (SMILES)	AUC0-∞ [2]	AUC(0-t) [2]	Cmax [2] [µM]	cumulative excretion into bile [4] [nmol]	dose excreted [5, 9] [%]	dose excreted [5, 10] [%]	dose excreted [5, 11] [%]	cumulative excretion into feces [5] [nmol]	cumulative excretion into urine [5] [nmol]	Conclusion (dose-exposure relationship) [6, 12]	Slope (90%CI) [6, 14]	Slope (90%CI) [6, 15]	time at which C max was exhibited ([7]; rat plasma) [min]	AUC(0-inf) ([7]; 6 g/kg) [nM·h]	AUC(0-t) ([7]; 6 g/kg) [nM·h]	Cmax ([7]; 6 g/kg) [µM]	MRT inf ([7]; 6 g/kg) [h]	Tmax ([7]; 6 g/kg) [h]	half-life ([7]; 6 g/kg) [h]	AUC(0-inf) ([7]; 18 g/kg) [nM·h]	further results
Cc1cc(O)c2c(c1)C(=O)c1cc(O)cc(O)c1C2=O [Emodin, emodin]	2,970 ± 863 nmol·h/L	2,540 ± 694 nmol·h/L	0.648 ± 0.125	70.7 ± 20.4	23.6	32.5	8.82	50.3 ± 6.18	19.0 ± 3.81	Nonlinear correlation	0.466 (0.290–0.642)	0.656 (0.554–0.758)	≤ 20	1350	1040	0.205 ± 0.0394	12.7 ± 4.65	0.12 ± 0.07	7.72 ± 3.67	2910	AUC(0-t) ([1]; both, bladder): 988 nM·h; AUC(0-t) ([1]; both, brain): 244 nM·h; AUC(0-t) ([1]; both, heart): 1640 nM·h; AUC(0-t) ([1]; both, intestine): 5570 nM·h; AUC(0-t) ([1]; both, kidney): 2830 nM·h; AUC(0-t) ([1]; both, liver): 6360 nM·h; AUC(0-t) ([1]; both, lung): 7110 nM·h; AUC(0-t) ([1]; both, spleen): 19100 nM·h; AUC(0-t) ([1]; both, stomach): 1720 nM·h; AUC(0-t) ([1]; female, ovary): 570 nM·h; AUC(0-t) ([1]; female, uterus): 773 nM·h; AUC(0-t) ([1]; male, testis): 116 nM·h; AUC0-t in spleen ([1]; rat tissue: spleen, 18 g/kg RPM extract p.o., tissues collected at 5, 15, 60 min): 19100 nM·h; logP [3]: 5.03; Conclusion (dose-exposure relationship) [6, 13]: Nonlinear correlation; AUC(0-t) ([7]; 18 g/kg): 2480 nM·h; Cmax ([7]; 18 g/kg): 0.491 ± 0.0358 µM; MRT inf ([7]; 18 g/kg): 13 ± 4.18 h; Tmax ([7]; 18 g/kg): 0.14 ± 0.09 h; half-life ([7]; 18 g/kg): 9.44 ± 3.63 h
COc1cc(O[C@@H]2O[C@H](CO)[C@@H](O)[C@H](O)[C@H]2O)c2c(O)c(C(C)=O)c(C)cc2c1 [TG, torachrysone-8-O-glucoside]	53.0 ± 18.3 nmol·h/L	51.9 ± 18.1 nmol·h/L	0.0458 ± 0.00994	8.96 ± 2.38	27.9	45.5	17.6	30.4 ± 5.73	19.1 ± 2.99	Uncertainty of linear relationship	0.720 (0.464–0.977)	0.756 (0.627–0.884)	≤ 20	16.6 ± 10.9	15.8 ± 10.6	0.0124 ± 0.00266	1.58 ± 0.77	0.19 ± 0.09	1.23 ± 0.58	49.5 ± 17.1	AUC(0-t) ([1]; both, bladder, AUC0-t in bladder, rat tissue: bladder, 18 g/kg RPM extract p.o., tissues collected at 5, 15, 60 min): 438 nM·h; AUC(0-t) ([1]; both, brain, AUC0-t in brain, rat tissue: brain, 18 g/kg RPM extract p.o., tissues collected at 5, 15, 60 min): 18.5 nM·h; AUC(0-t) ([1]; both, heart, AUC0-t in heart, rat tissue: heart, 18 g/kg RPM extract p.o., tissues collected at 5, 15, 60 min): 1780 nM·h; AUC(0-t) ([1]; both, intestine, AUC0-t in intestine, rat tissue: intestine, 18 g/kg RPM extract p.o., tissues collected at 5, 15, 60 min): 181 nM·h; AUC(0-t) ([1]; both, kidney, AUC0-t in kidney, rat tissue: kidney, 18 g/kg RPM extract p.o., tissues collected at 5, 15, 60 min): 845 nM·h; AUC(0-t) ([1]; both, liver, AUC0-t in liver, rat tissue: liver, 18 g/kg RPM extract p.o., tissues collected at 5, 15, 60 min): 3810 nM·h; AUC(0-t) ([1]; both, lung, AUC0-t in lung, rat tissue: lung, 18 g/kg RPM extract p.o., tissues collected at 5, 15, 60 min): 438 nM·h; AUC(0-t) ([1]; both, spleen, AUC0-t in spleen, rat tissue: spleen, 18 g/kg RPM extract p.o., tissues collected at 5, 15, 60 min): 1190 nM·h; AUC(0-t) ([1]; both, stomach, AUC0-t in stomach, rat tissue: stomach, 18 g/kg RPM extract p.o., tissues collected at 5, 15, 60 min): 1460 nM·h; AUC(0-t) ([1]; female, ovary, AUC0-t in ovary, rat tissue: ovary, 18 g/kg RPM extract p.o., tissues collected at 5, 15, 60 min): 153 nM·h; AUC(0-t) ([1]; female, uterus, AUC0-t in uterus, rat tissue: uterus, 18 g/kg RPM extract p.o., tissues collected at 5, 15, 60 min): 380 nM·h; AUC(0-t) ([1]; male, testis, AUC0-t in testis, rat tissue: testis, 18 g/kg RPM extract p.o., tissues collected at 5, 15, 60 min): 69.8 nM·h; MRT0-∞ [2]: 2.10 ± 0.24 h; t 1/2 [2]: 2.00 ± 0.63 h; AUC(0-t) ([7]; 18 g/kg): 48 ± 17.2 nM·h; Cmax ([7]; 18 g/kg): 0.0373 ± 0.00457 µM; MRT inf ([7]; 18 g/kg): 2.23 ± 0.3 h; Tmax ([7]; 18 g/kg): 0.11 ± 0.07 h; half-life ([7]; 18 g/kg): 1.9 ± 0.22 h
O=C1c2cccc(O)c2C(=O)c2c(O)cc(CO)cc21 [Aloe-emodin, aloe-emodin]	31.3 ± 12.7 nmol·h/L	27.0 ± 12.0 nmol·h/L	0.042 ± 0.0115	61.1 ± 8.66	21.7	31.4	9.69	43.7 ± 6.18	19.3 ± 5.44	Uncertainty of linear relationship	0.582 (0.278–0.885)	1.07 (0.795–1.35)	≤ 20	12.4 ± 7	8.32 ± 4.16	0.00825 ± 0.00747	9.61 ± 8.77	0.29 ± 0.1	8.46 ± 7.14	32.4 ± 14.4	AUC(0-t) ([1]; both, brain): 1.06 nM·h; AUC(0-t) ([1]; both, heart): 16.9 nM·h; AUC(0-t) ([1]; both, intestine): 7.33 nM·h; AUC(0-t) ([1]; both, kidney): 9.77 nM·h; AUC(0-t) ([1]; both, liver): 55.5 nM·h; AUC(0-t) ([1]; both, lung): 31.3 nM·h; AUC(0-t) ([1]; both, spleen): 52.5 nM·h; AUC(0-t) ([1]; both, stomach): 23.8 nM·h; AUC(0-t) ([1]; female, ovary): 6.66 nM·h; Conclusion (dose-exposure relationship) [6, 13]: Uncertainty of linear relationship; AUC(0-t) ([7]; 18 g/kg): 25.4 ± 9.7 nM·h; Cmax ([7]; 18 g/kg): 0.0317 ± 0.00303 µM; MRT inf ([7]; 18 g/kg): 4.65 ± 3.53 h; half-life ([7]; 18 g/kg): 5.09 ± 3.38 h
COc1cc(O)c2c(c1)C(=O)c1cc(C)cc(O)c1C2=O [Physcion, physcion]	–	–	–	–	–	–	–	–	–	–	–	–	–	–	–	–	–	–	–	–	Peff ([8]; colon): (7.45 ± 3.30) × 10^–3 cm/min; Peff ([8]; duodenum): (3.32 ± 1.50) × 10^–3 cm/min; Peff ([8]; ileum): (2.40 ± 0.58) × 10^–3 cm/min; Peff ([8]; jejunum): (2.30 ± 1.57) × 10^–3 cm/min; plasma concentrations ([7]; RPM extract 6, 18 and 36 g/kg p.o., rat plasma): too low to be detected

— publication PMC8899820, “Pharmacokinetics, Tissue Distribution, and Excretion Characteristics of a Radix Polygoni Multiflori Extract in Rats” (Frontiers in Pharmacology, 2022)
